Reference: patent US7812025B2, “Brain/neuronal cell-protecting agent and therapeutic agent for sleep disorder” (Takeda Pharmaceutical Company Limited, priority 2005, dated 2010)

molecular target: T1, Human FAAH (Homo sapiens, UniProt O00519); assay: Measurement of FAAH inhibitory activity (enzyme fraction from CHO-K1/human FAAH, substrate anandamide [ethanolamine 1-3H]); assay type: biochemical; conditions: 1 μM test compound; 25 nM anandamide [ethanolamine 1-3H]; 60 ng enzyme fraction; 37° C. for 30 minutes; pH 9.0; read-out: Human FAAH Inhibition Rate at 1 μM (%)
T1 construct: made in house; 10000 g pellet suspended in M-PER
T1 sequence (O00519 1-579): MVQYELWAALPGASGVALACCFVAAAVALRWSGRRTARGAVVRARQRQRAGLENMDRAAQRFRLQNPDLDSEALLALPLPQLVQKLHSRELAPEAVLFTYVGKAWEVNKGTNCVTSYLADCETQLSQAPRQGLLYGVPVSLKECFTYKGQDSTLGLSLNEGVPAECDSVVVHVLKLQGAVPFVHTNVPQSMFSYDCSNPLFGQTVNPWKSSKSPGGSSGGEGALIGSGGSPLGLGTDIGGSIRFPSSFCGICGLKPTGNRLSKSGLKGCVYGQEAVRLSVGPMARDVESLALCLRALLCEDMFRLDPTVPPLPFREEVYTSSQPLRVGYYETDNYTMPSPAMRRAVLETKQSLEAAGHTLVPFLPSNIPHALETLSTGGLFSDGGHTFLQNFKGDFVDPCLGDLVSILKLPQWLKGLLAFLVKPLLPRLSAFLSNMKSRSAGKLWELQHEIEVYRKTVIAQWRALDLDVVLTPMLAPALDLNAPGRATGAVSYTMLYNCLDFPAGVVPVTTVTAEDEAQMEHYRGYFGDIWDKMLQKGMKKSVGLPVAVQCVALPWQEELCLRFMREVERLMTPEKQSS
Experimental: Measurement of FAAH Inhibitory Activity
(1) Preparation of Enzyme Fraction
The FAAH gene was cloned by PCR. That is, a human brain library was used as a cDNA library, 5′-[…]-3′ [SEQ ID NO:1] and 5′-[…]-3′ [SEQ ID NO:2] were used as a primer set, and KOD DNA polymerase (Toyobo Co., Ltd.) was used as a DNA polymerase. One cycle of the reaction comprises 95° C. for 30 sec, 55° C. for 30 sec and 72° C. for 2 min, and 45 cycles of the reaction was carried out to obtain an amplified fragment. The amplified fragment was cleaved with restriction enzymes EcoRI and SalI, and then was inserted into a pMSRα vector which had been cleaved with the same restriction enzymes EcoRI and SalI to obtain a pMSRα-human FAAH. A cell line CHO-K1 and the above-obtained plasmid were subjected to a method known per se to prepare the cell line CHO-K1/human FAAH in which human FAAH was stably expressed. The CHO-K1/human FAAH was cultured in a CO2 incubator at 37° C., using a medium (Ham's F-12 medium supplemented with final concentration 10% of fetal bovine serum (FBS) and final concentration 800 μg/ml of G418), and then the cells were harvested. After washing with PBS, the cells were suspended in a buffer (10 mM Tris, 1 mM EDTA and 10 mM MgCl2, all at final concentrations) and disrupted with a Polytron homogenizer. After centrifugation at 900 g, the supernatant was recovered and further centrifuged at 10000 g. A pellet obtained therefrom was suspended in M-PER (Catalog No. 78501; PIERCE) to give an enzyme fraction.
Using a white walled 96-well plate (Coster Corp.), the test compound at various concentrations, 60 ng of the enzyme fraction and the substrate anandamide [ethanolamine 1-^3H] (final concentration 25 nM) were reacted in 50 μl of a reaction buffer (125 mM Tris-HCl (pH 9.0), 1 mM EDTA, 0.4 mM HEPES, 0.2% glycerol and 0.02% Triton X-100, all at final concentrations) at 37° C. for 30 minutes. The reaction mixture was transferred to a 96-well MultiScreen-HA filter plate (Millipore Corp.) and then was left to stand overnight at room temperature in order to allow the unreacted substrate to be adsorbed on the filter. The plate was washed with PBS using a MultiScreen Vacuum Manifold (Millipore Corp.) and dried. To each well, 50 μl of liquid scintillation cocktail was added and stirred, and then counting was performed with a TopCount (Perkin-Elmer Corp.). The count of a sample containing a solvent instead of the test compound was taken as 0%, and the count at zero time was taken as 100%, to calculate the inhibitory activity of the compound.

| SMILES | inhibition at 1 µM [%] |
| --- | --- |
| Cc1noc(NC(=O)N2CCN(c3ccc(-c4ccccc4)cn3)CC2)c1C [Example 7, N-(3,4-Dimethylisoxazol-5-yl)-4-(5-phenylpyridin-2-yl)piperazine-1-carboxamide] | 102 |
| O=C(Nc1cccnn1)N1CCN(c2cccc(-c3ccccc3)c2)CC1 [Example 9, 4-Biphenyl-3-yl-N-pyridazin-3-ylpiperazine-1-carboxamide] | 105 |
| O=C(Nc1cccnc1)N1CCN(c2cccc(-c3ccccc3)c2)CC1 [Example 1, 4-Biphenyl-3-yl-N-pyridin-3-ylpiperazine-1-carboxamide] | 103 |
| CC(=O)Nc1ccc(NC(=O)N2CCN(c3cccc(-c4ccsc4)c3)CC2)cc1 [Example 10, N-[4-(Acetylamino)phenyl]-4-[3-(3-thienyl)phenyl]piperazine-1-carboxamide] | 108 |
| O=C(Nc1cccnc1)N1CCN(c2cc(-c3ccccc3)ccn2)CC1 [Example 4, 4-(4-Phenylpyridin-2-yl)-N-pyridin-3-ylpiperazine-1-carboxamide] | 74 |
| O=C(Nc1cccnn1)N1CCN(c2cc(-c3ccccc3)ccn2)CC1 [Example 6, 4-(4-Phenylpyridin-2-yl)-N-pyridazin-3-ylpiperazine-1-carboxamide] | 91 |
| CC(=O)Nc1ccc(NC(=O)N2CCN(c3cccc(-c4ccccc4)c3)CC2)cn1 [Example 3, N-[6-(Acetylamino)pyridin-3-yl]-4-biphenyl-3-ylpiperazine-1-carboxamide] | 101 |
| O=C(Nc1cccnc1)N1CCN(c2ccc(-c3ccccc3)cn2)CC1 [Example 8, 4-(5-Phenylpyridin-2-yl)-N-pyridin-3-ylpiperazine-1-carboxamide] | 98 |
| Cc1noc(NC(=O)N2CCN(c3cc(-c4ccccc4)ccn3)CC2)c1C [Example 5, N-(3,4-Dimethylisoxazol-5-yl)-4-(4-phenylpyridin-2-yl)piperazine-1-carboxamide] | 94 |
| Cc1noc(NC(=O)N2CCN(c3cccc(-c4ccccc4)c3)CC2)c1C [Example 2, 4-Biphenyl-3-yl-N-(3,4-dimethylisoxazol-5-yl)piperazine-1-carboxamide] | 104 |

Other lines, results leading:

| inhibition at 1 µM [%] | SMILES |
| --- | --- |
| 101 | O=C(Nc1cccnc1)N1CCN(c2ccc(-c3ccccc3)cc2)CC1 [Example 14, 4-Biphenyl-4-yl-N-pyridin-3-ylpiperazine-1-carboxamide] |
| 100 | Cc1noc(NC(=O)N2CCN(c3cccc(-c4ccsc4)c3)CC2)c1C [Example 11, N-(3,4-Dimethylisoxazol-5-yl)-4-[3-(3-thienyl)phenyl]piperazine-1-carboxamide] |
| 102 | Cc1noc(NC(=O)N2CCN(c3ccc(-c4ccccc4)cc3)CC2)c1C [Example 15, 4-Biphenyl-4-yl-N-(3,4-dimethylisoxazol-5-yl)piperazine-1-carboxamide] |
| 104 | O=C(Nc1cccnc1)N1CCN(c2cccc(-c3ccsc3)c2)CC1 [Example 12, N-Pyridin-3-yl-4-[3-(3-thienyl)phenyl]piperazine-1-carboxamide] |
| 104 | O=C(Nc1cccnc1)N1CCN(c2cccc(-c3ccoc3)c2)CC1 [Example 13, 4-[3-(3-Furyl)phenyl]-N-pyridin-3-ylpiperazine-1-carboxamide] |
